Key:
HLA A2.1 = molecular target: T1, HLA A2.1 (UniProt P01901+P04439, D140Y/D185E/D98H/E176V/G131W/I119V/I121R/I166T/N151K/N90K/Q86G/Q94H/R138H/R169H); assay: Competition assay: inhibition of influenza matrix peptide M1 (58-66) binding to A2.1, read as inhibition of lysis by an M1-specific CTL clone; design: species or system human; conditions: test peptide 10 μg vs influenza matrix peptide 0.1 μg; T2-A2.1/K^b target cells
T1 construct: expressed in transfected cells; host or cells: T2-A2.1/K^b cells
Protocol: Briefly, each test peptide (10 μg) was incubated with radiolabeled target cells (T2-A2.1/K^b, 10^6 target cells labeled with […] ^51Cr at 37° for 1.5 hours) in the presence of an influenza virus matrix protein (0.1 μg). The ability of these peptides to inhibit the binding of the influenza matrix protein peptide MI (58-66) to A2.1 was measured by inhibition of lysis by an M1 (58-66) specific, A2.1 restricted CTL clone.

MDA.MB231 = assay: Lysis of tumor cells by peptide-specific CTL; assay type: cell-based, human; conditions: 6 hours
MCF-7 = assay: Lysis of tumor cells by peptide-specific CTL; assay type: cell-based, human; conditions: 6 hours
BT549 = assay: Lysis of tumor cells by peptide-specific CTL; assay type: cell-based, human; conditions: 6 hours
SAOS.175 = assay: Lysis of tumor cells by peptide-specific CTL; assay type: cell-based, human; conditions: 6 hours
U2-OS = assay: Lysis of tumor cells by peptide-specific CTL; assay type: cell-based, human; conditions: 6 hours
SW480 = assay: Lysis of tumor cells by peptide-specific CTL; assay type: cell-based, human; conditions: 6 hours
OVCAR-5 = assay: Lysis of tumor cells by peptide-specific CTL; assay type: cell-based, human; conditions: 6 hours
T98G = assay: Lysis of tumor cells by peptide-specific CTL; assay type: cell-based, human; conditions: 6 hours
MALME-3M = assay: Lysis of tumor cells by peptide-specific CTL; assay type: cell-based, human; conditions: 6 hours
SKMEL-5 = assay: Lysis of tumor cells by peptide-specific CTL; assay type: cell-based, human; conditions: 6 hours
NCl.H1355 = assay: Lysis of tumor cells by peptide-specific CTL; assay type: cell-based, human; conditions: 6 hours
Hep-G2 = assay: Lysis of tumor cells by peptide-specific CTL; assay type: cell-based, human; conditions: 6 hours
CASKI = assay: Lysis of tumor cells by peptide-specific CTL; assay type: cell-based, human; conditions: 6 hours
U87G = assay: Lysis of tumor cells by peptide-specific CTL; assay type: cell-based, human; conditions: 6 hours
ST486 = assay: Lysis of tumor cells by peptide-specific CTL; assay type: cell-based, human; conditions: 6 hours
LG-2 = assay: Lysis of tumor cells by peptide-specific CTL; assay type: cell-based, human; conditions: 6 hours
SV80 = assay: Lysis of tumor cells by peptide-specific CTL; assay type: cell-based, human; conditions: 6 hours
JY = assay: Lysis of tumor cells by peptide-specific CTL; assay type: cell-based, human; conditions: 6 hours
MDA.MB435 = assay: Lysis of tumor cells by peptide-specific CTL; assay type: cell-based, human; conditions: 6 hours
[1] = tumor preincubated 24 hours with 20 ng/ml γ-IFN and 3 ng/ml TNF-α

## LVSEFSRMA [H22, Her-2/neu peptide 972-980]
HLA A2.1
  % INHIBITION: 14%

## QLMPYGCLL [H16, Her-2/neu peptide 799-807]
HLA A2.1
  % INHIBITION: 50%

## RLLQETELV [H13]
HLA A2.1
  % INHIBITION: 56%

## TLQGLGISWL [H6, Her-2/neu peptide 444-453]
HLA A2.1
  % INHIBITION: 56%

## TLSPGKNGV [H24, Her-2/neu peptide 1172-1180]
HLA A2.1
  % INHIBITION: 57%

## VLQGLPREYV [H8, Her-2/neu peptide 546-555]
HLA A2.1
  % INHIBITION: 43%

## VLVKSPNHV [H17, Her-2/neu peptide 851-859]
HLA A2.1
  % INHIBITION: 12%

## VMAGVGSPYV [H7]
HLA A2.1
  % INHIBITION: 55%
MDA.MB231; MDA.MB231, breast, A2 +, Her-2 +, no cytokine preincubation
  Killing of tumor (lysis): 26%
MDA.MB231; MDA.MB231, tumor preincubated 24 hours with 20 ng/ml γ-IFN and 3 ng/ml TNF-α
  Killing of tumor (lysis) + CYT: 89
MCF-7; MCF-7, breast, A2 +, Her-2 +, no cytokine preincubation
  Killing of tumor (lysis): 7%
MCF-7; MCF-7, tumor preincubated 24 hours with 20 ng/ml γ-IFN and 3 ng/ml TNF-α
  Killing of tumor (lysis) + CYT: 40
BT549; BT549, breast, A2 +, Her-2 +, no cytokine preincubation
  Killing of tumor (lysis): 2%
BT549; BT549, tumor preincubated 24 hours with 20 ng/ml γ-IFN and 3 ng/ml TNF-α
  Killing of tumor (lysis) + CYT: 36
SAOS.175; SAOS.175, osteosarcoma, A2 +, Her-2 +, no cytokine preincubation
  Killing of tumor (lysis): 27%
SAOS.175; SAOS.175, tumor preincubated 24 hours with 20 ng/ml γ-IFN and 3 ng/ml TNF-α
  Killing of tumor (lysis) + CYT: 35
U2-OS; [1]
  Killing of tumor (lysis) + CYT: 62
U2-OS; osteosarcoma, A2 +, Her-2 +, no cytokine preincubation
  Killing of tumor (lysis): 30%
SW480; SW480, colon, A2 +, Her-2 +, no cytokine preincubation
  Killing of tumor (lysis): 2%
SW480; SW480, tumor preincubated 24 hours with 20 ng/ml γ-IFN and 3 ng/ml TNF-α
  Killing of tumor (lysis) + CYT: 17
OVCAR-5; OVCAR-5, ovarian, A2 +, Her-2 +, no cytokine preincubation
  Killing of tumor (lysis): 13%
OVCAR-5; OVCAR-5, tumor preincubated 24 hours with 20 ng/ml γ-IFN and 3 ng/ml TNF-α
  Killing of tumor (lysis) + CYT: 23
T98G; [1]
  Killing of tumor (lysis) + CYT: 93
T98G; glioblastoma, A2 +, Her-2 +, no cytokine preincubation
  Killing of tumor (lysis): 29%
MALME-3M; [1]
  Killing of tumor (lysis) + CYT: 14
MALME-3M; melanoma, A2 +, Her-2 +, no cytokine preincubation
  Killing of tumor (lysis): 4%
SKMEL-5; SKMEL-5, melanoma, A2 +, Her-2 +, no cytokine preincubation
  Killing of tumor (lysis): 16%
SKMEL-5; SKMEL-5, tumor preincubated 24 hours with 20 ng/ml γ-IFN and 3 ng/ml TNF-α
  Killing of tumor (lysis) + CYT: 40
NCl.H1355; NCl.H1355, lung, A2 +, Her-2 +, no cytokine preincubation
  Killing of tumor (lysis): 13%
NCl.H1355; NCl.H1355, tumor preincubated 24 hours with 20 ng/ml γ-IFN and 3 ng/ml TNF-α
  Killing of tumor (lysis) + CYT: 62
Hep-G2; Hep-G2, hepatoma, A2 +, Her-2 +, no cytokine preincubation
  Killing of tumor (lysis): 4%
Hep-G2; Hep-G2, tumor preincubated 24 hours with 20 ng/ml γ-IFN and 3 ng/ml TNF-α
  Killing of tumor (lysis) + CYT: 29
CASKI; [1]
  Killing of tumor (lysis) + CYT: 20
CASKI; cervix, A2 +, Her-2 +, no cytokine preincubation
  Killing of tumor (lysis): 9%
U87G; [1]
  Killing of tumor (lysis) + CYT: 1
U87G; glioblastoma, A2 +, Her-2 −, no cytokine preincubation
  Killing of tumor (lysis): 1%
ST486; ST486, lymphoma, A2 +, Her-2 −, no cytokine preincubation
  Killing of tumor (lysis): 5%
ST486; ST486, tumor preincubated 24 hours with 20 ng/ml γ-IFN and 3 ng/ml TNF-α
  Killing of tumor (lysis) + CYT: 8
LG-2; LG-2, EBV-trans., A2 +, Her-2 −, no cytokine preincubation
  Killing of tumor (lysis): 1%
LG-2; LG-2, tumor preincubated 24 hours with 20 ng/ml γ-IFN and 3 ng/ml TNF-α
  Killing of tumor (lysis) + CYT: 3
SV80; SV80, fibroblast, A2 +, Her-2 −, no cytokine preincubation
  Killing of tumor (lysis): 2%
SV80; SV80, tumor preincubated 24 hours with 20 ng/ml γ-IFN and 3 ng/ml TNF-α
  Killing of tumor (lysis) + CYT: 2
JY; [1]
  Killing of tumor (lysis) + CYT: 2
JY; lymphoma, A2 +, Her-2 −, no cytokine preincubation
  Killing of tumor (lysis): 4%
MDA.MB435; MDA.MB435, breast, A2 −, Her-2 +, no cytokine preincubation
  Killing of tumor (lysis): 1%
MDA.MB435; MDA.MB435, tumor preincubated 24 hours with 20 ng/ml γ-IFN and 3 ng/ml TNF-α
  Killing of tumor (lysis) + CYT: 1
